Patent publication US9937115B2, “Oral care compositions with improved flavor” (priority 2010, dated 2018)
Structures can show the parent of a compound that is named as a salt. Where two headings read alike, the source gives them in different places.

Key:
[1] = target: T1, TRPA1 receptor (Homo sapiens, UniProt O75762); experiment: cell-based; design: activation: dose or concentration left out as unconfirmed; details: for activation at 100 µM / activation: HEK293; for activation at 100 µM: read-out: TRPA1 Direct addition; for activation: pre-incubation, read-out: TRPA1 Pre-incubation;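 for TRPA1 Pre-incubation: values above 100 mean more active than the control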
T1 construct: expressed in transfected cells; host or cells: HEK cell line
T1 sequence (O75762 whole entry): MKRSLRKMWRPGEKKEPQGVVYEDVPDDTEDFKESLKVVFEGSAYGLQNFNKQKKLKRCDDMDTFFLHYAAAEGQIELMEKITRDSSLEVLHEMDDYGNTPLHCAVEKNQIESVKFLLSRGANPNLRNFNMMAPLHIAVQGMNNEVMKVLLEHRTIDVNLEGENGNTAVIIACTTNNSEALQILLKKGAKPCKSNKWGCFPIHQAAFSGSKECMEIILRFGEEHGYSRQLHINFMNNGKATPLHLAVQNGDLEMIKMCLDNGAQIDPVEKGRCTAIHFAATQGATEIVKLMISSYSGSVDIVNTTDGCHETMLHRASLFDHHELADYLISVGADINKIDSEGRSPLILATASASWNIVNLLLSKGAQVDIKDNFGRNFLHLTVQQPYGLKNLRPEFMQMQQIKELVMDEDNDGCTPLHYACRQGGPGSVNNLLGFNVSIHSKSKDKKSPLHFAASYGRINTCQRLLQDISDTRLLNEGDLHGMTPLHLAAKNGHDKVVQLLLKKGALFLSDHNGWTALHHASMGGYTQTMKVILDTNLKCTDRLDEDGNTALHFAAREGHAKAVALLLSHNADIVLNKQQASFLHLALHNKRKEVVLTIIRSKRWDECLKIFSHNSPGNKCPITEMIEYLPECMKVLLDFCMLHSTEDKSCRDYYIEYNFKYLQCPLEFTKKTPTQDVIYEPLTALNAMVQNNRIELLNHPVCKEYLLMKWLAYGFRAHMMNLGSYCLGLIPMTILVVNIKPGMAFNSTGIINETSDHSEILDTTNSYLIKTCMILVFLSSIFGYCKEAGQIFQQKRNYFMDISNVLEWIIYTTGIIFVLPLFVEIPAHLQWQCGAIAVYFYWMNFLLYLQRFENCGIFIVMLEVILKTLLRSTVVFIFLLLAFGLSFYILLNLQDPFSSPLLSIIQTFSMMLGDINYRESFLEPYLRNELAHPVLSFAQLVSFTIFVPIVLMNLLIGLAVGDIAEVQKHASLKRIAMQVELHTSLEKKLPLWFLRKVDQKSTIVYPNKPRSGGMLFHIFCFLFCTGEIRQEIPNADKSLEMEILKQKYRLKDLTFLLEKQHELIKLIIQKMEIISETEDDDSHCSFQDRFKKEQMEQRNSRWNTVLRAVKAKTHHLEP
Protocol: The term “TRPA1 activator” as used herein refers to any component which at a concentration of 1 mM gives a calcium flux count of at least 1000 counts above the background level of calcium present in the cell according to the FLIPR method as discussed herein. The term “count” is defined as the change in fluorescence of the transfected cell lines due to the influx of calcium across the cell membrane, which reacts with the calcium sensitive dye present within the cells.
In order to select TRPA1 agonists that would be preferred for reducing off-tasting chemical components found in oral care compositions, calcium flux receptor activity on the TRPA1 was utilized as the criteria for selection of actives. With allyl isothiocyanate as the TRPA1 positive control, molecules that directly activated the TRPA1 receptor were screened in dimethylsulfoxide (DMSO). Pure molecules of each material were dissolved in DMSO at a concentration of 100 micormolar and then added to an HEK cell line containing the TRPA1 receptor. If they are TRPA1 agonists, they will cause a calcium flux in the cell which fluoresces and may then be measured using a FLIPR machine.

[2] = target: T1, TRPA1 receptor; type: cell-based; details: percentage of the control (allyl isothiocyanate) calcium count, material dissolved in DMSO at 100 micromolar, HEK cells with TRPA1
[3] = percentage of the control (allyl isothiocyanate) calcium count, material dissolved in DMSO at 100 micromolar, HEK cells with TRPA1, direct addition
[4] = percentage of the control (allyl isothiocyanate) calcium count, material dissolved in DMSO at 100 micromolar, HEK cells with TRPA1

Molecule: 2-phenyl propyl tetrahydrofuran
- TRPA1 Direct addition [1, 3]: −0.15%
- TRPA1 Pre-incubation [2]: 108.49%

Molecule: 4-Ethylguaiacol
- TRPA1 Direct addition [1, 3]: 55.61%
- TRPA1 Pre-incubation [2]: 53.53%

Molecule: C=CC(C)(O)CCC=C(C)CC (mixture of isomers) [Ethyl Linalool]
- TRPA1 Direct addition [1, 3]: −0.1%
- TRPA1 Pre-incubation [2]: 63.35%

Molecule: CC(=O)O[C@@H]1C[C@H](C)CC[C@H]1C(C)C (racemic) [DL-Menthyl Acetate]
- TRPA1 Direct addition [1, 3]: −16.09%
- TRPA1 Pre-incubation [2]: 43.32%

Molecule: CC(C)=CC1CC(C)CCO1 (racemic) [Rose Oxide Racemic]
- TRPA1 Direct addition [1, 3]: −6.68%
- TRPA1 Pre-incubation [2]: 80.14%

Molecule: COc1ccc(CC(C)=O)cc1 [1-(P-Methoxyphenyl)-2-Propanone]
- TRPA1 Direct addition [1, 3]: 0.49%
- TRPA1 Pre-incubation [2]: 77.63%

Molecule: CC(=O)c1nccs1 [2-Aceylthiazole]
- TRPA1 Direct addition [1, 3]: −1.29%
- TRPA1 Pre-incubation [2]: 57.82%

Molecule: CCC1OC(C)=C(O)C1=O (stereo not shown) [2-Ethyl-4-Hydroxy-5-Methyl-3(2) Furanone]
- TRPA1 Direct addition [1, 3]: −1.06%
- TRPA1 Pre-incubation [2]: 78.56%

Molecule: CCc1nc(C)cs1 [2-Ethyl-4-Methythiazole]
- TRPA1 Direct addition [1, 3]: −1.38%
- TRPA1 Pre-incubation [2]: 62.39%

Molecule: CCC(C)C=O (stereo not shown) [2-Methylbutraldehyde]
- TRPA1 Direct addition [1, 3]: 81.04%
- TRPA1 Pre-incubation [2]: 35.61%

Molecule: Cc1ccc(C=O)c(O)c1 [2_Hydroxy-4-Methyl Benzaldehyde]
- TRPA1 Direct addition [1, 3]: 0.4%
- TRPA1 Pre-incubation [2]: 68.24%

Molecule: CCC=CCCOC(=O)CC(C)C [3-Hexenyl-3-Methylbutanoate]
- TRPA1 Direct addition [1, 3]: −1.61%
- TRPA1 Pre-incubation [2]: 88.62%

Molecule: CC(=O)CCc1ccc(O)cc1 [4-P-hydroxyphenyl-2-butanone]
- TRPA1 Direct addition [1, 3]: 0.2%
- TRPA1 Pre-incubation [2]: 63.07%

Molecule: Cc1nc(C)c(C)s1 [,2,4,5-Trimethythiazole]
- TRPA1 Direct addition [1, 3]: −1.43%
- TRPA1 Pre-incubation [2]: 64.86%

Molecule: COc1ccc(C(C)=O)cc1 [Acetanisole]
- TRPA1 Direct addition [1, 3]: 0.15%
- TRPA1 Pre-incubation [2]: 83.69%

Molecule: C=CCCC(=O)/C=C/C1C(C)=CCCC1(C)C (stereo not drawn) [Allyl Alpha-Ionone]
- TRPA1 Direct addition [1, 3]: 0.55%
- TRPA1 Pre-incubation [2]: 64.99%

Molecule: C/C=C\C(=O)C1C(C)=CCCC1(C)C (stereo not drawn) [Alpha-Damascone]
- TRPA1 Direct addition [1, 3]: −2.88%
- TRPA1 Pre-incubation [2]: 96.58%

Molecule: CC(=O)/C=C/C1C(C)=CCCC1(C)C (stereo not drawn) [Alpha-Ionone]
- TRPA1 Direct addition [1, 3]: −0.9%
- TRPA1 Pre-incubation [2]: 111.19%

Molecule: C/C(C=O)=C\c1ccccc1 [Alpha-Methyl-Trans-Cinnamaldehyde]
- TRPA1 Direct addition [1, 3]: 37.95%
- TRPA1 Pre-incubation [2]: 72.88%

Molecule: CCCC(=O)OCc1ccc(OC)cc1 [Anisyl butyrate]
- TRPA1 Direct addition [1, 3]: −0.03%
- TRPA1 Pre-incubation [2]: 112.61%

Molecule: CC(=O)/C=C/C1=C(C)CCCC1(C)C [Beta Ionone]
- TRPA1 Direct addition [1, 3]: −2.88%
- TRPA1 Pre-incubation [2]: 75.35%

Molecule: CC1=C(/C=C/C(C)O)C(C)(C)CCC1 (stereo not drawn) [Beta-ionol]
- TRPA1 Direct addition [1, 3]: −0.01%
- TRPA1 Pre-incubation [2]: 114.23%

Molecule: CCCCOC(=O)C(C)OC(=O)CCC (stereo not shown) [Butyl Butyryllactate]
- TRPA1 Direct addition [1, 3]: −1.54%
- TRPA1 Pre-incubation [2]: 39.69%

Molecule: C=C(C)C1CC=C(C)C(OC(=O)CC)C1 (stereo not shown) [Carvyl Propionate]
- TRPA1 Direct addition [1, 3]: −0.57%
- TRPA1 Pre-incubation [2]: 105.07%

Molecule: CC(C)=CCCC(C)CCO (stereo not shown) [Cironellol]
- TRPA1 Direct addition [1, 3]: −1.03%
- TRPA1 Pre-incubation [2]: 51.22%

Molecule: CC(=O)CCC1C(C)=CCCC1(C)C (stereo not drawn) [Dihydro-alpha-ionone]
- TRPA1 Direct addition [1, 3]: 0.11%
- TRPA1 Pre-incubation [2]: 108.18%

Molecule: CC1=C(CCC(C)O)C(C)(C)CCC1 (stereo not drawn) [Dihydro-beta-ionol]
- TRPA1 Direct addition [1, 3]: −0.33%
- TRPA1 Pre-incubation [2]: 97.15%

Molecule: CCCc1ccc(O)c(OC)c1 [Dihydroeugenol]
- TRPA1 Direct addition [1, 3]: 0.07%
- TRPA1 Pre-incubation [2]: 103.71%

Molecule: CCOC(=O)C1OC1(C)c1ccccc1 (stereo not shown) [Ethyl 3-Methyl-3-Phenylglycidate]
- TRPA1 Direct addition [1, 3]: 23.6%
- TRPA1 Pre-incubation [2]: 77.42%

Molecule: CCOC(=O)c1ccccc1N [Ethyl Anthrailate]
- TRPA1 Direct addition [1, 3]: 39.71%
- TRPA1 Pre-incubation [2]: 61.95%

Molecule: CCOC(=O)/C=C/c1ccccc1 [Ethyl Cinnemate]
- TRPA1 Direct addition [1, 3]: 0.45%
- TRPA1 Pre-incubation [2]: 70.82%

Molecule: CCOC(=O)CSC [Ethyl Methylthio Acetate]
- TRPA1 Direct addition [1, 3]: −0.06%
- TRPA1 Pre-incubation [2]: 55.69%

Molecule: CCOC(=O)C1OC1c1ccccc1 (stereo not shown) [Ethyl-3-Phenylglycinate]
- TRPA1 Direct addition [1, 3]: 12.13%
- TRPA1 Pre-incubation [2]: 54.22%

Molecule: C=C/C(C)=C/C/C=C(\C)CCC=C(C)C [Farmesene]
- TRPA1 Direct addition [1, 3]: −0.32%
- TRPA1 Pre-incubation [2]: 90.8%

Molecule: CC(=O)OC1C2(C)CCC(C2)C1(C)C (stereo not shown) [Fenchyl Acetate]
- TRPA1 Direct addition [1, 3]: −0.1%
- TRPA1 Pre-incubation [2]: 59.08%

Molecule: CCCC1CCC(=O)O1 (stereo not shown) [Gamma Heptalactone]
- TRPA1 Direct addition [1, 3]: 1.18%
- TRPA1 Pre-incubation [2]: 51.03%

Molecule: CC(=O)/C(C)=C/C1C(C)=CCCC1(C)C (stereo not shown) [Gamma Methyl Ionone]
- TRPA1 Direct addition [1, 3]: 4.96%
- TRPA1 Pre-incubation [2]: 23.55%

Molecule: CCCCCC(C)=O [Heptanone]
- TRPA1 Direct addition [1, 3]: −0.04%
- TRPA1 Pre-incubation [2]: 69.5%

Molecule: CC/C=C\CCO [Hexen-1-ol]
- TRPA1 Direct addition [1, 3]: 0.06%
- TRPA1 Pre-incubation [2]: 80.84%

Molecule: CC(=O)C1(C)CC2=C(CCCC2(C)C)CC1C (stereo not shown) [ISO E Super]
- TRPA1 Direct addition [1, 3]: 11.53%
- TRPA1 Pre-incubation [2]: −0.4%

Molecule: C/C=C/c1ccc(OC(=O)Cc2ccccc2)c(OC)c1 [Iso-eugenyl phenylacetate]
- TRPA1 Direct addition [1, 3]: 29.74%
- TRPA1 Pre-incubation [2]: 42.19%

Molecule: CC(C)C(=O)O [Isobutryic Acid]
- TRPA1 Direct addition [1, 3]: 1.15%
- TRPA1 Pre-incubation [2]: 78.64%

Molecule: O=S(=O)([O-])NC1CCCCC1.[Na+] [Sodium Cyclamate]
- TRPA1 Direct addition [1]: −4.07%
- TRPA1 Pre-incubation [1]: 48.66%

Molecule: CC1=CCC(=C(C)C)CC1 [Terpinolene]
- activation at 100 µM [1, 3]: -17.2%
- activation [1, 4]: 76.2%

Molecule: CC/C=C/C=C/C=O [Trans,trans-2,4-Heptadienal]
- activation at 100 µM [1, 3]: 119%
- activation [1, 4]: -3.68%

Molecule: CCC/C=C/COC(C)=O [Trans-2-Hexenyl Acetate]
- activation at 100 µM [1, 3]: -0.32%
- activation [1, 4]: 68.7%

Molecule: CCCCCC/C=C/CO [Trans-2-Nonen-1-ol]
- activation at 100 µM [1, 3]: -0.49%
- activation [1, 4]: 115%

Molecule: CCCCCC/C=C/C=O [Trans-2-Nonenal]
- activation at 100 µM [1, 3]: 123%
- activation [1, 4]: 23.3%

Molecule: COc1cc(/C=C/C(=O)O)ccc1O [Trans-Ferulic Acid]
- activation at 100 µM [1, 3]: -2.53%
- activation [1, 4]: 85.6%

Molecule: CC(=O)OCC(COC(C)=O)OC(C)=O [Triacetin]
- activation at 100 µM [1, 3]: -17.1%
- activation [1, 4]: 79.3%

Molecule: CCOC(=O)CC(O)(CC(=O)OCC)C(=O)OCC [Triethyl Citrate]
- activation at 100 µM [1, 3]: -9.43%
- activation [1, 4]: 82.2%

Molecule: CCCCCCCCCCC(=O)O [Undecanoic Acid]
- activation at 100 µM [1, 3]: -14.6%
- activation [1, 4]: 24.7%

Molecule: CC(=O)[O-].CC(=O)[O-].[Zn+2] [Zinc Acetate]
- TRPA1 Direct addition [1]: −0.66%
- TRPA1 Pre-incubation [1]: 21.67%

Molecule: O=C([O-])C(=O)[O-].[Zn+2] [Zinc Oxalate]
- TRPA1 Direct addition [1]: 40.18%
- TRPA1 Pre-incubation [1]: 18.11%

Molecule: [O]=[Zn] [Zinc Oxide]
- TRPA1 Direct addition [1]: −3.73%
- TRPA1 Pre-incubation [1]: 71.09%

Molecule: O=S(=O)([O-])[O-].[Zn+2] [Zinc Sulfate]
- TRPA1 Direct addition [1]: 29.79%
- TRPA1 Pre-incubation [1]: 21.7%

Molecule: CCCCCC/C=C\CO [cis-2-nonen-1-ol]
- activation at 100 µM [1, 3]: -1.09%
- activation [1, 4]: 79.2%

Molecule: CC/C=C\CCOC(=O)CCC [cis-3-Hexenyl Butyrate]
- activation at 100 µM [1, 3]: -0.46%
- activation [1, 4]: 87.9%

Molecule: CC/C=C\CCOC(=O)CCCCC [cis-3-Hexenyl Hexanoate]
- activation at 100 µM [1, 3]: 0.08%
- activation [1, 4]: 106%

Molecule: CC/C=C\CCOC(=O)C/C=C\CC [cis-3-Hexenyl cis-3-Hexenoate, [(Z)-hex-3-enyl] (Z)-hex-3-enoate]
- activation at 100 µM [1, 3]: -1.04%
- activation [1, 4]: 122%

Molecule: CC/C=C\CCCCCO [cis-6-Nonen-1-ol]
- activation at 100 µM [1, 3]: 2.38%
- activation [1, 4]: 98%

Molecule: CC/C=C\CCCCC=O [cis-6-Nonenal]
- activation at 100 µM [1, 3]: 2.76%
- activation [1, 4]: 74.7%

Molecule: CCCOC(=O)c1ccc(O)cc1 [n-Propyl-4-hydroxybenzoate]
- activation at 100 µM [1, 3]: 173%
- activation [1, 4]: 8.13%

Molecule: COc1cc(C)ccc1C(C)C [thymyl methyl ether]
- activation at 100 µM [1, 3]: -0.16%
- activation [1, 4]: 108%

Molecule: CCCCCC/C=C/C=C/C=O [trans,trans-2,4-Undecadienal]
- activation at 100 µM [1, 3]: 122%
- activation [1, 4]: -3.93%

Molecule: CCCC/C=C/C=O [trans-2-Heptenal]
- activation at 100 µM [1, 3]: 95.9%
- activation [1, 4]: -3.74%

Molecule: CCC/C=C/C=O [trans-2-Hexenal]
- activation at 100 µM [1, 3]: 1.62%
- activation [1, 4]: 103%

Molecule: Methyl Ionone
- TRPA1 Direct addition [1]: 38.43%
- TRPA1 Pre-incubation [1]: −1.32%
